Test [1] concerns TNFα. Nature of the test: cells. As to conditions: LPS-stimulated human monocytes, read-out: EC50 TNF. Format: cell-based, human.
In test [2] the target is IRAK4 enzyme (Homo sapiens (Human), UniProt Q9NWZ3). The experiment in a line: biochemical. The class given is biochemical. As to conditions: IRAK4 enzyme, 500 μM ATP.
[3] abbreviates: Homo sapiens, Monocyte, TNFα content.

Read-outs that look alike come from different tables or passages of the source.

Sequence of IRAK4 enzyme (Q9NWZ3 whole entry): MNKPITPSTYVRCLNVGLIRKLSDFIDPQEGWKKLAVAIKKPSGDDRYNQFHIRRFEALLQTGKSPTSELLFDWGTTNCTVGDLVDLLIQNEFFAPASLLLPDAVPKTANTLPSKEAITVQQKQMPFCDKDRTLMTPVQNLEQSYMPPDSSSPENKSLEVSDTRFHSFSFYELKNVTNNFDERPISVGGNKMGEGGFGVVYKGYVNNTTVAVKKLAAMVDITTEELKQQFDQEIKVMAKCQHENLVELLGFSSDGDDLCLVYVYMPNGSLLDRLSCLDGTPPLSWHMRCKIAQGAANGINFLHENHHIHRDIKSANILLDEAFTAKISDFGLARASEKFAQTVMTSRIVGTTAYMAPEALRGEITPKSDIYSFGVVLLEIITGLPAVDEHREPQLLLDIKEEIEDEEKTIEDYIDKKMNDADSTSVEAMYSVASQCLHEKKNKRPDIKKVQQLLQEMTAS

As usually defined, the EC50 is the concentration at which the effect is half-maximal. What is called IC50 is the point on the concentration scale where inhibition reaches its midpoint. A lower IC50 goes with higher potency. With `CC(C)(O)[C@H](F)CNC(=O)c1cnc(-c2ccc3cc(C#N)cnn23)cc1NC1CCC(C)(N2CCOCC2)CC1` (single isomer, unassigned) [Example 690], the 50% effective concentration (EC50) in test [1] (TNFα content) came out at 71 nM. This compound registered an IC50 in test [2] (TR-FRET (HTRF)) of 1 nM.

As for `CC(C)(O)[C@H](F)CNC(=O)c1cnc(-c2ccc3cc(C#N)cnn23)cc1NC1CCC(C)(N2CCOCC2)CC1` (single isomer, unassigned) [Example 691], the EC50 in test [1] (TNFα content) was 345 nM. In test [2] (TR-FRET (HTRF)), this compound came in with a 50% inhibitory concentration (IC50) of 5 nM.

On to `COC(=O)NC1CC2(C1)CC(Nc1cc(-c3ccc4cc(C#N)cnn34)ncc1C(=O)NC[C@@H](F)C(C)(C)O)C2` (single isomer, unassigned) [Example 756], for which the half-maximal effective concentration (EC50) in test [1] (TNFα content) is 59 nM. The half-maximal inhibitory concentration (IC50) in test [2] (TR-FRET (HTRF)) is 1 nM.

As to `COC(=O)NC1CC2(C1)CC(Nc1cc(-c3ccc4cc(C#N)cnn34)ncc1C(=O)NC[C@@H](F)C(C)(C)O)C2` (single isomer, unassigned) [Example 757], the EC50 in test [1] (TNFα content) was 12 nM. Further, the IC50 in test [2] (TR-FRET (HTRF)) was less than 1 nM.

With `COC(=O)NCC1(O)CC(Nc2cc(-c3ccc4cc(C#N)cnn34)ncc2C(=O)NC[C@@H](F)C(C)(C)O)C1` (single isomer, unassigned) [Example 759], in test [1] (TNFα content), the EC50 is more than 10000 nM. The compound further returned a half-inhibitory concentration (IC50) in test [2] (TR-FRET (HTRF)) of 3 nM.

Take `COC(=O)NCC1(O)CC(Nc2cc(-c3ccc4cc(C#N)cnn34)ncc2C(=O)NC[C@@H](F)C(C)(C)O)C1` (single isomer, unassigned) [Example 760]: in test [1] (TNFα content), the concentration giving a half-maximal response (EC50) stood at 33 nM. This compound showed a half-inhibitory concentration (IC50) in test [2] (TR-FRET (HTRF)) of less than 1 nM.

With `COC(=O)NCC1(F)CC(Nc2cc(-c3ccc4cc(C#N)cnn34)ncc2C(=O)NC[C@@H](F)C(C)(C)O)C1` (single isomer, unassigned) [Example 764], the concentration giving a half-maximal response (EC50) in test [1] (TNFα content) worked out at 8 nM. Also, in test [2] (TR-FRET (HTRF)), the concentration for half-maximal inhibition (IC50) is less than 1 nM.

On to `COC(=O)NCC1(F)CC(Nc2cc(-c3ccc4cc(C#N)cnn34)ncc2C(=O)NC[C@@H](F)C(C)(C)O)C1` (single isomer, unassigned) [Example 765], for which, in test [1] (TNFα content), the concentration giving a half-maximal response (EC50) was determined as 323 nM. Besides, in test [2] (TR-FRET (HTRF)), the IC50 came to 6 nM.

`CC(C)(O)[C@H](F)CNC(=O)c1cnc(-c2ccc3cc(C#N)cnn23)cc1Nc1cnn(C2CNCC2(F)F)c1` (single isomer, unassigned) [Example 868]: the EC50 in test [1] (TNFα by TR-FRET) was 53 nM. The compound also displayed a 50% inhibitory concentration (IC50) in test [2] (TR-FRET) of less than 1 nM.

Consider `CC(C)(O)[C@H](F)CNC(=O)c1cnc(-c2ccc3cc(C#N)cnn23)cc1Nc1cnn(C2CNCC2(F)F)c1` (single isomer, unassigned) [Example 869], for which the 50% effective concentration (EC50) in test [1] (TNFα by TR-FRET) was 14 nM. The half-inhibitory concentration (IC50) in test [2] (TR-FRET) was less than 1 nM.

`CC1(Nc2cc(-c3ccc4cc(C#N)cnn34)ncc2C(=O)NC[C@@H](F)C(C)(C)O)COC1` [Example 1, (R)-6-(3-cyanopyrrolo[1,2-b]pyridazin-7-yl)-N-(2-fluoro-3-hydroxy-3-methylbutyl)-4-((3-methyloxetan-3-yl)amino)nicotinamide]: in test [1] (setting [3]), the EC50 was found to be 32 nM. The concentration for half-maximal inhibition (IC50) in test [2] (TR-FRET) was less than 1 nM.

On to `CC(C)(O)[C@H](F)CNC(=O)c1cnc(-c2ccc3cc(C#N)cnn23)cc1N[C@H]1CCC[C@@H](O)C1` [Example 2, 6-(3-cyanopyrrolo[1,2-b]pyridazin-7-yl)-N-((R)-2-fluoro-3-hydroxy-3-methylbutyl)-4-(((1S,3R)-3-hydroxycyclohexyl)amino)nicotinamide], for which the EC50 in test [1] (setting [3]) came to 9 nM. Moreover, in test [2] (TR-FRET), the IC50 is less than 1 nM.

Regarding `CC(C)Nc1cc(-c2ccc3cc(C#N)cnn23)ncc1C(=O)N[C@H]1CC[C@H](C(C)(C)O)CC1` [Example 3, 6-(3-cyanopyrrolo[1,2-b]pyridazin-7-yl)-N-((1r,4r)-4-(2-hydroxypropan-2-yl)cyclohexyl)-4-(isopropylamino)nicotinamide], the EC50 in test [1] (setting [3]) turned out to be 62 nM. This compound had an IC50 in test [2] (TR-FRET) of less than 1 nM.

Consider `CC(C)(O)[C@H](F)CNC(=O)c1cnc(-c2ccc3cc(C#N)cnn23)cc1Nc1cccnc1` [Example 4, (R)-6-(3-cyanopyrrolo[1,2-b]pyridazin-7-yl)-N-(2-fluoro-3-hydroxy-3-methylbutyl)-4-(pyridin-3-ylamino)nicotinamide], for which the half-maximal effective concentration (EC50) in test [1] (setting [3]) was 33 nM. The same compound came in with an IC50 in test [2] (TR-FRET) of less than 1 nM.

Take `CC(C)Nc1cc(-c2ccc3cc(C#N)cnn23)ncc1C(=O)NC1CC2(C1)CC(C(C)(C)O)C2` (stereo not drawn) [Example 5, 6-(3-cyanopyrrolo[1,2-b]pyridazin-7-yl)-N-(6-(2-hydroxypropan-2-yl)spiro[3.3]heptan-2-yl)-4-(isopropylamino)nicotinamide]: the concentration giving a half-maximal response (EC50) in test [1] (setting [3]) amounted to 207 nM. Moreover, in test [2] (TR-FRET), the IC50 was less than 1 nM.

On to `CC(C)Nc1cc(-c2ccc3cc(C#N)cnn23)ncc1C(=O)NC1CCOCC1` [Example 6, 6-(3-cyanopyrrolo[1,2-b]pyridazin-7-yl)-4-(isopropylamino)-N-(tetrahydro-2H-pyran-4-yl)nicotinamide], for which the concentration for a half-maximal effect (EC50) in test [1] (setting [3]) turned out to be 152 nM. In test [2] (TR-FRET), it took 5 nM to reach half-maximal inhibition (IC50).

`CC(C)Nc1cc(-c2ccc3cc(C#N)cnn23)ncc1C(=O)NC1COC1` [Example 7, 6-(3-cyanopyrrolo[1,2-b]pyridazin-7-yl)-4-(isopropylamino)-N-(oxetan-3-yl)nicotinamide]: in test [1] (setting [3]), the EC50 was 442 nM. For the same compound, in test [2] (TR-FRET), it took 5 nM to reach half-maximal inhibition (IC50).

For `CC(C)(O)[C@H](F)CNC(=O)c1cnc(-c2ccc3cc(C#N)cnn23)cc1NC1CNC(=O)C1` (stereo partly drawn) [Example 8, 6-(3-cyanopyrrolo[1,2-b]pyridazin-7-yl)-N-((R)-2-fluoro-3-hydroxy-3-methylbutyl)-4-((5-oxopyrrolidin-3-yl)amino)nicotinamide], the EC50 in test [1] (setting [3]) was determined as 774 nM. In addition, in test [2] (TR-FRET), the IC50 is less than 1 nM.

As to `CC(C)Nc1cc(-c2ccc3cc(C(N)=O)cnn23)ncc1C(=O)NCC1CCS(=O)(=O)C1` (stereo not drawn) [Example 9, 7-(5-(((1,1-dioxidotetrahydrothiophen-3-yl)methyl)carbamoyl)-4-(isopropylamino)pyridin-2-yl)pyrrolo[1,2-b]pyridazine-3-carboxamide], the EC50 in test [1] (setting [3]) was 5100 nM. The half-inhibitory concentration (IC50) in test [2] (TR-FRET) is 16 nM.

On to `CC(C)(O)[C@H](F)CNC(=O)c1cnc(-c2ccc3cc(C#N)cnn23)cc1NS(C)(=O)=O` [Example 10, (R)-6-(3-cyanopyrrolo[1,2-b]pyridazin-7-yl)-N-(2-fluoro-3-hydroxy-3-methylbutyl)-4-(methylsulfonamido)nicotinamide], for which the EC50 in test [1] (setting [3]) was more than 10000 nM. Further, 234 nM corresponded to half-maximal inhibition in test [2] (TR-FRET) (IC50).

Consider `CC(C)(O)[C@H](F)CNC(=O)c1cnc(-c2ccc3cc(C#N)cnn23)cc1N` [Example 11, (R)-4-amino-6-(3-cyanopyrrolo[1,2-b]pyridazin-7-yl)-N-(2-fluoro-3-hydroxy-3-methylbutyl)nicotinamide], for which the concentration giving a half-maximal response (EC50) in test [1] (setting [3]) turned out to be 1040 nM. In addition, the IC50 in test [2] (TR-FRET) is 7 nM.

With `CC(C)Nc1cc(-c2ccc3cc(C#N)cnn23)ncc1C(=O)N[C@H]1CC[C@H](N)CC1` [Example 12, N-((1r,4r)-4-aminocyclohexyl)-6-(3-cyanopyrrolo[1,2-b]pyridazin-7-yl)-4-(isopropylamino)nicotinamide], the EC50 in test [1] (setting [3]) was determined as 97 nM. Moreover, the midpoint of inhibition in test [2] (TR-FRET), the IC50, lay at 2 nM.

As for `CC(=O)N[C@H]1CC[C@H](NC(=O)c2cnc(-c3ccc4cc(C#N)cnn34)cc2NC(C)C)CC1` [Example 13, N-((1r,4r)-4-acetamidocyclohexyl)-6-(3-cyanopyrrolo[1,2-b]pyridazin-7-yl)-4-(isopropylamino)nicotinamide], the EC50 in test [1] (setting [3]) worked out at 79 nM. The IC50 in test [2] (TR-FRET) was less than 1 nM.

`CC(C)(O)[C@H](F)CNC(=O)c1cnc(-c2ccc3cc(C#N)cnn23)cc1NC1CC2CCC(C1)N2` (stereo partly drawn) [Example 14, 4-(((1R,3r,5S)-8-azabicyclo[3.2.1]octan-3-yl)amino)-6-(3-cyanopyrrolo[1,2-b]pyridazin-7-yl)-N-((R)-2-fluoro-3-hydroxy-3-methylbutyl)nicotinamide]: the half-maximal effective concentration (EC50) in test [1] (setting [3]) was 626 nM. Further, in test [2] (TR-FRET), the IC50 was 3 nM.

For the compound `CC(C)(O)[C@H](F)CNC(=O)c1cnc(-c2ccc3cc(C#N)cnn23)cc1NC1CC2CCC(C1)N2S(C)(=O)=O` (stereo partly drawn) [Example 15, 6-(3-cyanopyrrolo[1,2-b]pyridazin-7-yl)-N-((R)-2-fluoro-3-hydroxy-3-methylbutyl)-4-(((1R,3r,5S)-8-(methylsulfonyl)-8-azabicyclo[3.2.1]octan-3-yl)amino)nicotinamide], in test [1] (TNFα content), the 50% effective concentration (EC50) came to 302 nM. Moreover, the IC50 in test [2] (TR-FRET) was determined as 4 nM.

`CC(=O)N1CCC(Nc2cc(-c3ccc4cc(C#N)cnn34)ncc2C(=O)NC[C@@H](F)C(C)(C)O)CC1` [Example 16, (R)-4-((1-acetylpiperidin-4-yl)amino)-6-(3-cyanopyrrolo[1,2-b]pyridazin-7-yl)-N-(2-fluoro-3-hydroxy-3-methylbutyl)nicotinamide]: the concentration for a half-maximal effect (EC50) in test [1] (setting [3]) is 204 nM. This compound also registered a half-inhibitory concentration (IC50) in test [2] (TR-FRET) of 2 nM.

As to `CC(C)Nc1cc(-c2ccc3cc(-c4nnn[nH]4)cnn23)ncc1C(=O)NC[C@@H](F)C(C)(C)O` [Example 17, (R)-6-(3-(1H-tetrazol-5-yl)pyrrolo[1,2-b]pyridazin-7-yl)-N-(2-fluoro-3-hydroxy-3-methylbutyl)-4-(isopropylamino)nicotinamide], the EC50 in test [1] (setting [3]) was found to be 5200 nM. In test [2] (TR-FRET), inhibition was half-maximal at 24 nM (IC50).

Turning to `CC(C)Nc1cc(-c2ccc3cc(C#N)cnn23)ncc1C(=O)NCCS(N)(=O)=O` [Example 20, 6-(3-cyanopyrrolo[1,2-b]pyridazin-7-yl)-4-(isopropyl-amino)-N-(2-sulfamoylethyl)nicotinamide], the half-maximal effective concentration (EC50) in test [1] (setting [3]) was 128 nM. Inhibition in test [2] (TR-FRET) was half-maximal at 2 nM (IC50).

`CC(C)Nc1cc(-c2ccc3cc(C#N)cnn23)ncc1C(=O)NCCc1ccc(S(N)(=O)=O)cc1` [Example 21, 6-(3-cyanopyrrolo[1,2-b]pyridazin-7-yl)-4-(isopropylamino)-N-(4-sulfamoylphenethyl) nicotinamide]: the EC50 in test [1] (setting [3]) came out at 69 nM. In test [2] (TR-FRET), this compound returned a half-maximal inhibitory concentration (IC50) of less than 1 nM.

For the compound `CNC(=O)C1CCC(NC(=O)c2cnc(-c3ccc4cc(C#N)cnn34)cc2NC(C)C)CC1` (stereo not drawn) [Example 22, 6-(3-cyanopyrrolo[1,2-b]pyridazin-7-yl)-4-(isopropyl-amino)-N-((1r,4r)-4-(methylcarbamoyl)cyclohexyl) nicotinamide], in test [1] (setting [3]), the EC50 amounted to 87 nM. This compound had a half-maximal inhibitory concentration (IC50) in test [2] (TR-FRET) of less than 1 nM.

Source of the values: patent publication US10336762B2 (priority 2017, dated 2019).
